In paper PMC6089501 (Journal of Medicinal Chemistry, 2018):
≈ marks a conversion by molar mass, not a printed value. Where “and” joins values, the source holds several entries; their conditions need not be identical. Identical values can stand only once. Like-named read-outs stand apart in the source and are kept apart here.

Assays:
[1] = tested on: Madin Darby Canine Kidney (MDCK)
physchem [2] = assay: physchem
Vero cells [3] = assay: cells; settings: Chlorocebus sabaeus, read-out: VERO IC50
Experimental: (§1) Compounds were solubilized in DMSO and assayed as a 10-point 3-fold serial dilution. Compounds were incubated with cells for 2 days at 37 °C, 5% CO2. CellTiter-Glo Reagent (Promega) was added and relative luminescent units (RLU) measured.

[4] = pH 2/6/7.4
Experimental: (§2) Samples are stirred for 20 h and filtered through a 0.7 μm GF filter. The filtrate was analyzed by HPLC assay for concentration against DMSO standard curve.[40]

in vitro = settings: dog, MDCK-MDR1
[5] = C57 Black, mouse, in vivo, po
Experimental: Analysis of 37 in Mouse Blood samples (10mg/kg PO and 3mg/kg IV)

[6] = female, C57 Black, mouse, in vivo, iv, 3 mg/kg
in vivo [7] = settings: Sprague-Dawley, rat; for AUC(0-t) at 24 h: AUC 0–24
Experimental: (§3) Test compound was dosed orally by gavage at 5 mg of free base/kilogram (dose volume 5 mL/kg; dose vehicle 1.0% carboxy methyl cellulose, CMC) to male Sprague–Dawley Rats (n = 1 per time point). At predetermined time points, blood samples (100 μL) were taken from the hepatic portal vein into a tube containing EDTA. Immediately afterward, the remaining blood was taken by cardiac puncture into a separate tube containing EDTA to determine the concentration of compound reaching the systemic circulation. The blood was mixed with two volumes of distilled water and stored frozen until UPLC/MS/MS analysis. Pharmacokinetic parameters were derived from the blood concentration time curve using PK Solutions software v 2.0 (Summit Research Services, USA).

M. tuberculosis H37Rv [8] = assay: microbe, parasite or virus in culture; format: cell-based, Mycobacterium tuberculosis; settings: Mycobacterium tuberculosis, H37RV
[9] = Sprague-Dawley, rat, in vivo
Experimental: as §3

Vero cells [10] = settings: read-out: VERO IC50
Experimental: as §1

in vivo [11] = settings: female, C57 Black, mouse
physchem [12] = assay: physchem; remark: listed apart in the source
Experimental: as §2

M. tuberculosis H37Rv [13] = tested on: M. tuberculosis H37Rv; design: species or system Mycobacterium tuberculosis; settings: in vivo
M. tuberculosis H37Rv [14] = format: cell-based, Mycobacterium tuberculosis

SMILES: NC(=O)c1sc(N2CCOCC2)cc1OCCc1ccc(OC(F)(F)F)cc1 [Compound 37, 5-Morpholino-3-[2-[4-(trifluoromethoxy)phenyl]ethoxy]thiophene-2-carboxamide]
- P-glycoprotein (P-gp) efflux (in words) ([1]; MDCK-MDR1): no likely P-glycoprotein (P-gp) efflux issues
- permeability (in words) ([1]; MDCK-MDR1): good permeability
- P-gp Efflux B→ A/A → B ([1]; dog, MDCK): 0.8
- chromatographic logD (physchem [2]): 2.68
- IC50 (Vero cells [3]): 39 µM
- Cli mouse (female, CD1, mouse, pH 7.4): 8 mL.min^–1.g^–1
- scaled Clpre (female, CD1, mouse, pH 7.4): 76 mL/min/kg
- CL mouse MEAN (mouse, microsomes): 8.159 mL/min/g
- in vitro mouse Clint (mouse, microsomes): 8 mL/min/g
- solubility in HTSA (in words) [4]: poor solubility
- Papp A→B (in vitro): 25 ×10⁻⁶ cm/s
- Papp B→A (in vitro): 20 ×10⁻⁶ cm/s
- % Peak Area, metabolite A N or S-oxide [5]: 3%
- % Peak Area, metabolite B De-ethylation + oxidation [5]: 3%
- % Peak Area, metabolite C De-ethylation [5]: 2%
- % Peak Area, metabolite D Oxidation (x3) [5]: 6%
- % Peak Area, metabolite E Hydroxylation [5]: 27%
- CLB [6]: 29 mL/min/kg
- AUC(0-t) at 24 h (in vivo [7]; iv, 1 mg/kg): 550 ng·h/mL
- Tmax (in vivo [7]; male, po, 5 mg/kg): 1 h
- AUC(0-t) at 24 h (in vivo [7]; male, po, 5 mg/kg): 583 ng·h/mL
- Cmax (in vivo [7]; male, po, 5 mg/kg, Cmax): 200 ng/mL
- MIC (M. tuberculosis H37Rv [8]; read-out: H37Rv MIC): 0.083 µg/mL
- MIC90 (M. tuberculosis H37Rv [8]; read-out: MIC (MIC90)): 0.24 µM (≈ 0.0999 µg/mL)
- MIC (M. tuberculosis H37Rv [8]; read-out: MIC WT): 0.24 µM
- IC90 (M. tuberculosis H37Rv [8]; read-out: TB-IC90_OD GEOM_MEAN): 0.217 µM
- Clb ([9]; iv, 1 mg/kg): 30
- T1/2 ([9]; iv, 1 mg/kg): 0.5 h
- Cmax ([9]; male, po, 5 mg/kg): 140 ng/mL
- F ([9]; male, po, 5 mg/kg): 12%
- AUC 0–24 ([9]; male, po, 5 mg/kg, 24 h): 19
- IC50 (Vero cells [10]): 37 µM
- AUC (in vivo [11]; iv, 3 mg/kg): 1730 ng·h/mL
- bioavailability (in vivo [11]; po, 10 mg/kg): 18%
- solubility (physchem [12]; pH 2): 2 µg/mL (≈ 4.8 µM)
- solubility (physchem [12]; pH 6): 1 µg/mL (≈ 2.4 µM)
- solubility (physchem [12]; pH 7.4): 1 µg/mL (≈ 2.4 µM)
- growth of the bacteria in the lungs compared to untreated mice (in words) (M. tuberculosis H37Rv [13]): able to inhibit the growth of the bacteria in the lungs
- log CFUs per mouse (lungs), individual mice (M. tuberculosis H37Rv [13]): 6.1 log CFU and 5.8 log CFU
- log CFUs per mouse (lungs), mean (M. tuberculosis H37Rv [13]): 6.0 log CFU
- log reduction of colony forming unit (CFU) counts in the lungs (M. tuberculosis H37Rv [13]; po, 100 mg/kg): 0.8 log

SMILES: CCc1nc2ccc(Cl)cn2c1C(=O)NCc1ccc(N2CCC(c3ccc(OC(F)(F)F)cc3)CC2)cc1 [Compound Q203]
- ATP levels versus growth (OD590) (M. tuberculosis H37Rv [14]): depletion of ATP occurred at lower concentrations than required to inhibit growth

SMILES: CO[C@H]1/C=C/O[C@@]2(C)Oc3c(C)c(O)c4c(O)c(c(/C=N/N5CCN(C)CC5)c(O)c4c3C2=O)NC(=O)/C(C)=C\C=C\[C@H](C)[C@H](O)[C@@H](C)[C@@H](O)[C@@H](C)[C@H](OC(C)=O)[C@@H]1C [rifampicin]
- ATP levels versus growth (OD590) (M. tuberculosis H37Rv [14]): correlated with growth
